Reference: PubChem BioAssay (NCI)
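Five concentrations, 48 hours, 96-well plates. Definition used: TGI = concentration required for complete inhibition of growth.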

The compounds below were run on KM12 colon (assay: DTP human tumour cell line panel, 48 h).
For `O=C1C(Cl)=C(Cl)C(=O)C2=C1C1c3ccccc3C2c2ccccc21`, the TGI was over 100 µM. Work on `Cc1cnc(-n2c(C)nc3cc(Cl)ccc3c2=O)s1` yielded a TGI of over 100 µM. `O=C1Nc2cc(Cl)ccc2C(=O)N2CCC[C@@H]12` gave a TGI of over 100 µM.

What follows are compounds tested on SK-OV-3 ovarian (assay: DTP human tumour cell line panel, 48 h).
With `CC(C)=CCC/C(C)=C/CO` the TGI was over 100 µM. Work on `O=C1C(Cl)=C(Cl)C(=O)C2=C1C1c3ccccc3C2c2ccccc21` yielded a TGI of over 100 µM. `Cc1cnc(-n2c(C)nc3cc(Cl)ccc3c2=O)s1` showed a TGI of over 100 µM. `O=C1Nc2cc(Cl)ccc2C(=O)N2CCC[C@@H]12` showed a TGI of over 100 µM.

These compounds were tested on CCRF-CEM leukemia (assay: DTP human tumour cell line panel, 48 h).
In the case of `c1ccc2c(c1)SC1=C(SC(=C3SC4=C(S3)Sc3ccccc3S4)S1)S2`, the TGI is reported as over 100 µM. `CC(C)=CCC/C(C)=C/CO` gave a TGI of over 100 µM. With `O=C1C(Cl)=C(Cl)C(=O)C2=C1C1c3ccccc3C2c2ccccc21` the TGI was over 100 µM. Work on `Cc1cnc(-n2c(C)nc3cc(Cl)ccc3c2=O)s1` yielded a TGI of over 100 µM. Work on `O=C1Nc2cc(Cl)ccc2C(=O)N2CCC[C@@H]12` yielded a TGI of over 100 µM.

The compounds below were run on RPMI-8226 leukemia (assay: DTP human tumour cell line panel, 48 h).
`c1ccc2c(c1)SC1=C(SC(=C3SC4=C(S3)Sc3ccccc3S4)S1)S2` was tested, and the TGI was over 100 µM. `CC(C)=CCC/C(C)=C/CO` showed a TGI of over 100 µM. `O=C1C(Cl)=C(Cl)C(=O)C2=C1C1c3ccccc3C2c2ccccc21` showed a TGI of 53.5 µM. Work on `O=C1Nc2cc(Cl)ccc2C(=O)N2CCC[C@@H]12` yielded a TGI of over 100 µM.

What follows are compounds tested on OVCAR-3 ovarian (assay: DTP human tumour cell line panel, 48 h).
Work on `c1ccc2c(c1)SC1=C(SC(=C3SC4=C(S3)Sc3ccccc3S4)S1)S2` yielded a TGI of over 100 µM. For `CC(C)=CCC/C(C)=C/CO`, the TGI was over 100 µM. In the case of `O=C1C(Cl)=C(Cl)C(=O)C2=C1C1c3ccccc3C2c2ccccc21`, the TGI is reported as over 100 µM. `Cc1cnc(-n2c(C)nc3cc(Cl)ccc3c2=O)s1` gave a TGI of over 100 µM.

What follows are compounds tested on NCI/ADR-RES ovarian (assay: DTP human tumour cell line panel, 48 h).
Work on `c1ccc2c(c1)SC1=C(SC(=C3SC4=C(S3)Sc3ccccc3S4)S1)S2` yielded a TGI of over 100 µM. For `CC(C)=CCC/C(C)=C/CO`, the TGI was over 100 µM. Compound `O=C1C(Cl)=C(Cl)C(=O)C2=C1C1c3ccccc3C2c2ccccc21` has a TGI of over 100 µM. `Cc1cnc(-n2c(C)nc3cc(Cl)ccc3c2=O)s1` was tested, and the TGI was 94.5 µM. With `O=C1Nc2cc(Cl)ccc2C(=O)N2CCC[C@@H]12` the TGI was over 100 µM.

These compounds were tested on OVCAR-5 ovarian (assay: DTP human tumour cell line panel, 48 h).
With `c1ccc2c(c1)SC1=C(SC(=C3SC4=C(S3)Sc3ccccc3S4)S1)S2` the TGI was over 100 µM. `CC(C)=CCC/C(C)=C/CO` gave a TGI of over 100 µM. In the case of `O=C1C(Cl)=C(Cl)C(=O)C2=C1C1c3ccccc3C2c2ccccc21`, the TGI is reported as over 100 µM. `Cc1cnc(-n2c(C)nc3cc(Cl)ccc3c2=O)s1` showed a TGI of over 100 µM. With `O=C1Nc2cc(Cl)ccc2C(=O)N2CCC[C@@H]12` the TGI was over 100 µM.

Each compound was assayed on SW-620 colon (assay: DTP human tumour cell line panel, 48 h).
Compound `c1ccc2c(c1)SC1=C(SC(=C3SC4=C(S3)Sc3ccccc3S4)S1)S2` has a TGI of over 100 µM. `CC(C)=CCC/C(C)=C/CO` gave a TGI of over 100 µM. `O=C1C(Cl)=C(Cl)C(=O)C2=C1C1c3ccccc3C2c2ccccc21` was tested, and the TGI was 59.5 µM. `Cc1cnc(-n2c(C)nc3cc(Cl)ccc3c2=O)s1` gave a TGI of over 100 µM. With `O=C1Nc2cc(Cl)ccc2C(=O)N2CCC[C@@H]12` the TGI was over 100 µM.

Each compound was assayed on T-47D breast (assay: DTP human tumour cell line panel, 48 h).
With `c1ccc2c(c1)SC1=C(SC(=C3SC4=C(S3)Sc3ccccc3S4)S1)S2` the TGI was over 100 µM. Compound `CC(C)=CCC/C(C)=C/CO` has a TGI of over 100 µM. `O=C1C(Cl)=C(Cl)C(=O)C2=C1C1c3ccccc3C2c2ccccc21` showed a TGI of 60.1 µM. `Cc1cnc(-n2c(C)nc3cc(Cl)ccc3c2=O)s1` gave a TGI of 68.9 µM. With `O=C1Nc2cc(Cl)ccc2C(=O)N2CCC[C@@H]12` the TGI was over 100 µM.

These compounds were tested on A549 NSCLC (assay: DTP human tumour cell line panel, 48 h).
Compound `c1ccc2c(c1)SC1=C(SC(=C3SC4=C(S3)Sc3ccccc3S4)S1)S2` has a TGI of over 100 µM. With `CC(C)=CCC/C(C)=C/CO` the TGI was over 100 µM. With `O=C1C(Cl)=C(Cl)C(=O)C2=C1C1c3ccccc3C2c2ccccc21` the TGI was over 100 µM. In the case of `Cc1cnc(-n2c(C)nc3cc(Cl)ccc3c2=O)s1`, the TGI is reported as over 100 µM. `O=C1Nc2cc(Cl)ccc2C(=O)N2CCC[C@@H]12` showed a TGI of over 100 µM.

Each compound was assayed on M14 melanoma (assay: DTP human tumour cell line panel, 48 h).
`c1ccc2c(c1)SC1=C(SC(=C3SC4=C(S3)Sc3ccccc3S4)S1)S2` gave a TGI of over 100 µM. `CC(C)=CCC/C(C)=C/CO` gave a TGI of over 100 µM. `O=C1C(Cl)=C(Cl)C(=O)C2=C1C1c3ccccc3C2c2ccccc21` was tested, and the TGI was over 100 µM. `Cc1cnc(-n2c(C)nc3cc(Cl)ccc3c2=O)s1` gave a TGI of over 100 µM. Work on `O=C1Nc2cc(Cl)ccc2C(=O)N2CCC[C@@H]12` yielded a TGI of over 100 µM.

These compounds were tested on MDA-MB-435 (assay: DTP human tumour cell line panel, 48 h).
In the case of `c1ccc2c(c1)SC1=C(SC(=C3SC4=C(S3)Sc3ccccc3S4)S1)S2`, the TGI is reported as over 100 µM. `CC(C)=CCC/C(C)=C/CO` showed a TGI of over 100 µM. For `O=C1C(Cl)=C(Cl)C(=O)C2=C1C1c3ccccc3C2c2ccccc21`, the TGI was over 100 µM. `Cc1cnc(-n2c(C)nc3cc(Cl)ccc3c2=O)s1` gave a TGI of over 100 µM. `O=C1Nc2cc(Cl)ccc2C(=O)N2CCC[C@@H]12` gave a TGI of over 100 µM.

Each compound was assayed on HL-60(TB) leukemia (assay: DTP human tumour cell line panel, 48 h).
With `c1ccc2c(c1)SC1=C(SC(=C3SC4=C(S3)Sc3ccccc3S4)S1)S2` the TGI was over 100 µM. Compound `CC(C)=CCC/C(C)=C/CO` has a TGI of over 100 µM. In the case of `O=C1C(Cl)=C(Cl)C(=O)C2=C1C1c3ccccc3C2c2ccccc21`, the TGI is reported as 52.5 µM. For `Cc1cnc(-n2c(C)nc3cc(Cl)ccc3c2=O)s1`, the TGI was over 100 µM. `O=C1Nc2cc(Cl)ccc2C(=O)N2CCC[C@@H]12` was tested, and the TGI was over 100 µM.

What follows are compounds tested on COLO 205 colon (assay: DTP human tumour cell line panel, 48 h).
With `c1ccc2c(c1)SC1=C(SC(=C3SC4=C(S3)Sc3ccccc3S4)S1)S2` the TGI was over 100 µM. Work on `CC(C)=CCC/C(C)=C/CO` yielded a TGI of over 100 µM. `O=C1C(Cl)=C(Cl)C(=O)C2=C1C1c3ccccc3C2c2ccccc21` showed a TGI of 61.4 µM. `Cc1cnc(-n2c(C)nc3cc(Cl)ccc3c2=O)s1` gave a TGI of 40.2 µM. Compound `O=C1Nc2cc(Cl)ccc2C(=O)N2CCC[C@@H]12` has a TGI of over 100 µM.

The compounds below were run on K-562 leukemia (assay: DTP human tumour cell line panel, 48 h).
`CC(C)=CCC/C(C)=C/CO` showed a TGI of over 100 µM. In the case of `O=C1C(Cl)=C(Cl)C(=O)C2=C1C1c3ccccc3C2c2ccccc21`, the TGI is reported as over 100 µM. Work on `Cc1cnc(-n2c(C)nc3cc(Cl)ccc3c2=O)s1` yielded a TGI of over 100 µM. With `O=C1Nc2cc(Cl)ccc2C(=O)N2CCC[C@@H]12` the TGI was over 100 µM.
